Assay results from the supplement of paper PMC12490022.
± gives the uncertainty stated by the source.

Tested on: ozone
Experiment: apparent second-order rate constant for reaction with ozone (kapp,O3) (M-1 s-1); higher = faster oxidation by ozone
Conditions: pH 7; temperature: 22 C; OH radical scavenger: tBuOH 80 mM; phosphate 4 mM
Procedure: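 Apparent second-order rate constants for reaction with ozone at pH 7 were determined by multicompound competition kinetics. Mixtures of targets and competitors (10 ug/L each) were ozonated in 4 mM phosphate buffer, pH 7, with 80 mM tBuOH as OH-radical scavenger, at 22 ± 1 °C. Peak-area abatement was measured by HPLC-HRMS/MS and k was derived from ln-ln slopes against competitors with known k (R2 > 0.9, >= 10 points, slope 0.1-10). Experiments were run in triplicate on 3 days; the value is the mean over valid competitors ± SD.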

apparent second-order rate constant	Structure (SMILES)
21000 ± 2000	COc1c(CSc2nc3ccc(OC(F)F)cc3[nH]2)[nH]ccc1=O [4'-O-Demethyl-pantoprazole sulfide]
90.5 ± 4.7	Nc1cc(Cl)c(S(N)(=O)=O)cc1S(N)(=O)=O [4-Amino-6-chlorobenzene-1,3-disulfonamide]
294000 ± 26000	Cc1c(N)c(=O)n(-c2ccccc2)n1C [4-Aminoantipyrine]
0.58 ± 0.04	O=C(c1ccccc1)c1ccc(Cl)cc1 [4-Chlorobenzophenone]
3.6e+07 ± 86	COc1cc(Cc2cnc(N)nc2N)cc(OC)c1O [4-Desmethyltrimethoprim]
61000 ± 14000	Cc1c(NC=O)c(=O)n(-c2ccccc2)n1C [4-Formylaminoantipyrine]
1.43e+06 ± 150000	Oc1ccc(C(F)(F)F)cc1 [4-Trifluoromethylphenol]
24300 ± 2500	Nc1[nH]c(=O)ncc1F [5-Fluorocytosine]
6.4e+07 ± 1.4e+07	O=C(O)Cc1cc(O)ccc1Nc1c(Cl)cccc1Cl [5-Hydroxydiclofenac]
1.6e+08 ± 3e+07	Nc1ccc(S(=O)(=O)Nc2ccc(O)cn2)cc1 [5-Hydroxysulfapyridine]
9.2e+07 ± 2e+07	C/C(=C\Cc1c(O)c(C)c2c(c1O)C(=O)OC2)CCC(=O)O [6-O-Desmethyl mycophenolic acid]

Second part, the compound before the results:

Structure (SMILES)	apparent second-order rate constant
CNCCCC(C#N)(c1ccc(OC)c(OC)c1)C(C)C (stereo unspecified)	2300 ± 200
Cn1c(=O)[nH]c2[nH]c(=O)n(C)c2c1=O [1,7-Dimethyluric acid]	6.6e+07 ± 1.4e+07
Clc1cccc(N2CCNCC2)c1 [1-(3-Chlorophenyl)piperazine]	2.1e+06 ± 400000
Clc1ccc(C(c2ccccc2)N2CCNCC2)cc1 (stereo unspecified) [1-(4-Chlorobenzhydryl)piperazine]	7700 ± 630
CC(C(=O)O)c1ccc(C(O)C(C)C)cc1 (stereo unspecified) [1-Hydroxyibuprofen]	14.7 ± 1.6
CN1CCN2c3ncccc3Cc3ccccc3C2C1=O (stereo unspecified) [1-Oxo-mirtazapine]	64000 ± 14000
O=c1ccn(C2OC(CO)C(O)C2(F)F)c(=O)[nH]1 (stereo unspecified) [2'-Deoxy-2',2'-difluorouridine]	562 ± 27
CC=C1N(C)C(C)CC1(c1ccccc1)c1ccccc1 (stereo unspecified) [2-Ethylidene-1,5-dimethyl-3,3-diphenylpyrrolidine (EDDP)]	99000 ± 18000
Cc1cc(=O)[nH]c2c1NC(=O)c1cccnc1N2C1CC1 [2-Hydroxynevirapine]	1.56e+07 ± 1.2e+06
CC(CN(C)C)CN1c2ccccc2CCc2cc(O)ccc21 (stereo unspecified) [2-Hydroxytrimipramine]	8.7e+07 ± 1.9e+07
Nc1c(I)c(N)c(I)c(C(=O)O)c1I [3,5-Diamino-2,4,6-triiodobenzoic acid]	1.02e+07 ± 700000
N[C@@H](Cc1cc(I)c(O)c(I)c1)C(=O)O [3,5-Diiodo-L-tyrosine]	2.87e+06 ± 220000
COc1cc(Cc2cnc(N)nc2N)cc(O)c1OC [3-Desmethyltrimethoprim]	1.17e+07 ± 900000
Oc1cnc2c(c1)CCc1cc(Cl)ccc1C2=C1CCNCC1 [3-Hydroxydesloratadine]	6.3e+07 ± 1.4e+07
Cc1c(CO)cccc1Nc1ccccc1C(=O)O [3-Hydroxymethylmefenamic acid]	9.3e+07 ± 2e+07
O=C(O)CCNC(=O)c1ccc(Cl)cc1 [3-[(4-Chlorobenzoyl)amino]propanoic acid]	0.194 ± 0.008
O=C(O)Cc1ccccc1Nc1c(Cl)cc(O)cc1Cl [4'-Hydroxydiclofenac]	6.95 ± 0.38
CC(N)Cc1ccc(O)cc1 (stereo unspecified) [4-Hydroxyamphetamine]	2.48e+06 ± 220000
CC(=O)OC1C=CC2C3Cc4ccc(O)c5c4C2(CCN3C)C1O5 (stereo unspecified) [6-Acetylmorphine]	1.29e+07 ± 1.1e+06
CN1CCN2c3ncc(O)cc3Cc3ccccc3C2C1 (stereo unspecified) [8-Hydroxymirtazapine]	5.4e+07 ± 1.2e+07
